In US5955578A, “Polypeptide-polymer conjugates active in wound healing” (La Jolla Cancer Research Foundation, priority 1995, dated 1999):
Where no end group is shown, it is not given here. [ ]: non-standard residue; d: D form.

Legend:
[1] = tested on: full thickness skin incisions; assay: Wound tensile strength in rat full thickness dermal incisions; type: in vivo, Wistar Furth rats
Experimental: Wistar Furth adult male rats (175-250g) were anesthetized by intraperitoneal injection of pentobarbital (60 mg/kg body weight). The rats dorsal area was closely shaved, and each animal was positioned and secured for surgery. Using aseptic technique, five full thickness skin incisions, 1.5 cm long, were made on the dorsal area. Each incision was treated with 0.05-0.10 ml of a blind sample of the peptide RRRRRRGDSPK-conjugated to hyaluronate or with 0.05-0.10 ml of human fibronectin (3 mg/ml in PBS, Colloborative Research, Bedford, Mass.) or rat fibronectin (2 mg/ml in PBS, Telios Pharmaceuticals, San Diego, Calif.) or was left untreated as a control. After treatment, the incisions were closed using standard 4-0 nylon sutures for placement of 5 to 7 interrupted sutures. The rats were returned to their cages for recovery and observation. At post operative days 2 through 7 and 10, six animals were anesthetized as above and were euthanized by an intracardiac injection of 0.5 cc of T-61.
Following euthanasia, the pelt was removed from the rat and 5 mm wide by 2 cm long skin strips bisecting incisions were prepared. Histological specimens from the skin adjacent to the tensile strength strip were also taken. To measure tensile strength, one end of the strip was clipped using a 1 mm Michel Clipper (Militex Instruments Co.) which was tied to a Grass model FTO3C force displacement transducer. The other end of the strip was clipped using a light weight hemostat which was attached to a Harvard Model 901 push-pull infusion pump (Harvard Instruments, Millis, Mass.) using cotton thread over a pulley. The transducer was attached to a Grass polygraph (Model 7D) for recording the results. After calibration, the pump was turned on to pull at the rate of 64 mm/min. The amount of force required to pull the skin apart at the incision was recorded on the polygraph.

[2] = In vitro assays of the type described in Pierschbacher et al. (1983); type: cell-based
[3] = tested on: PVA sponges implanted under the skin; assay: Polyvinylalcohol sponge implant model; type: in vivo, rats
Experimental: Peptide-hyaluronate conjugates were tested using the model of Davidson, et al., J. Cell Biol. 100: 1219-1227 (1985), which is incorporated herein by reference. This model involves the implantation of inert PVA sponges loaded with the conjugates or control materials under the skin of rats. The sponges were removed from the animals at 4 to 10 days after implantation and analyzed for cell ingrowth number and type and as collagen content, blood vessel formation (angiogenesis) and inflammatory response, as well as persistence of the conjugate in the wound.

[4] = tested on: dry eye condition; assay: Dry eye syndrome induced by excision of tear ducts; type: in vivo; details: cats; eye drops from day 17 to day 43; conjugate at 100 mg/ml
Experimental: The dry eye conditon was induced in six cats on day zero by the excision of tear ducts from the eyes. The cats were divided into two groups and treated as follows:
Group one was treated with two drops of human fibronectin, 3 mg/ml, a day twice a day from day 17 to day 34, and two drops a day three times a day from day 34 to 43. Group two was treated with two drops of chondroitin sulfate-peptide conjugate, G(dR)5 G3 (dR)GDSPASSK 100 mg/ml, a day twice a day from days 17 to 34, and two drops a day three times a day from day 34 to day 43.

[5] = early time points, effect diminishing at later time points

conjugates employing the peptide G(dR)5 G3 (dR)GDSPASSK: peptide G(dR)5G3(dR)GDSPASSK coupled to hyaluronic acid with EDC, 20 to 30% peptide by weight (G[dR][dR][dR][dR][dR]GGG[dR]GDSPASSK; also: coupled to hyaluronic acid with EDC)
wound strength, % of control ([1]; day 2): 160%
wound strength activity versus control (persistence) ([1]; through day 10): greater than control
in vitro activity compared with the conjugate of Example V [2]: more activity than the RGGDSPK peptide conjugate

RRRRRRGDSPK-conjugated to hyaluronate: peptide RRRRRRGDSPK coupled to hyaluronic acid by EDC, method of Example II (also: conjugated to hyaluronic acid by EDC)
wound strength, % of the strength of untreated wounds ([1]; day 5 after incision (maximum effect), 0.05-0.10 ml per incision): 211%
wound strength versus untreated control ([1]; days 3 through 7 after incision): increased
angiogenesis [3, 5]: increased
collagen secretion [3, 5]: increased
fibroblast migration [3, 5]: increased
collagen deposition into the sponges versus control sponges ([3]; up to the end of the experiment): more collagen was continuously deposited

chondroitin sulfate-peptide conjugate: peptide of Example I, G(dR)5G3(dR)GDSPASSK, coupled to chondroitin sulfate with EDC; 74 mg peptide/g conjugate (G[dR][dR][dR][dR][dR]GGG[dR]GDSPASSK; also: coupled to chondroitin sulfate with EDC)
dry eye condition (impression cytology, rose bengal staining) [4]: marked reduction of the dry eye condition
